From patent US20250281499A1, “FUSED AMINO PYRIMIDINE COMPOUNDS FOR TREATMENT OF NEUROPATHIC AND NEURO-INFLAMMATORY PAIN” (Ovid Therapeutics Inc., priority 2024, published 2025)

Tests used:
[1] = tested on: acute brain slices; test: Late recurrent discharges in acute brain slices exposed to 0-Mg
[2] = molecular target: T1, NKCC1 (Homo sapiens, UniProt P55011); test: Tl+ flux assay, HEK-293 cells expressing NKCC1; type: cell-based; settings: read-out: concentration at which effects on NKCC1 were seen (EC50, FIG. 1G)
T1 construct: expressed in transfected cells; host or cells: HEK-293
T1 sequence (P55011 1-1212): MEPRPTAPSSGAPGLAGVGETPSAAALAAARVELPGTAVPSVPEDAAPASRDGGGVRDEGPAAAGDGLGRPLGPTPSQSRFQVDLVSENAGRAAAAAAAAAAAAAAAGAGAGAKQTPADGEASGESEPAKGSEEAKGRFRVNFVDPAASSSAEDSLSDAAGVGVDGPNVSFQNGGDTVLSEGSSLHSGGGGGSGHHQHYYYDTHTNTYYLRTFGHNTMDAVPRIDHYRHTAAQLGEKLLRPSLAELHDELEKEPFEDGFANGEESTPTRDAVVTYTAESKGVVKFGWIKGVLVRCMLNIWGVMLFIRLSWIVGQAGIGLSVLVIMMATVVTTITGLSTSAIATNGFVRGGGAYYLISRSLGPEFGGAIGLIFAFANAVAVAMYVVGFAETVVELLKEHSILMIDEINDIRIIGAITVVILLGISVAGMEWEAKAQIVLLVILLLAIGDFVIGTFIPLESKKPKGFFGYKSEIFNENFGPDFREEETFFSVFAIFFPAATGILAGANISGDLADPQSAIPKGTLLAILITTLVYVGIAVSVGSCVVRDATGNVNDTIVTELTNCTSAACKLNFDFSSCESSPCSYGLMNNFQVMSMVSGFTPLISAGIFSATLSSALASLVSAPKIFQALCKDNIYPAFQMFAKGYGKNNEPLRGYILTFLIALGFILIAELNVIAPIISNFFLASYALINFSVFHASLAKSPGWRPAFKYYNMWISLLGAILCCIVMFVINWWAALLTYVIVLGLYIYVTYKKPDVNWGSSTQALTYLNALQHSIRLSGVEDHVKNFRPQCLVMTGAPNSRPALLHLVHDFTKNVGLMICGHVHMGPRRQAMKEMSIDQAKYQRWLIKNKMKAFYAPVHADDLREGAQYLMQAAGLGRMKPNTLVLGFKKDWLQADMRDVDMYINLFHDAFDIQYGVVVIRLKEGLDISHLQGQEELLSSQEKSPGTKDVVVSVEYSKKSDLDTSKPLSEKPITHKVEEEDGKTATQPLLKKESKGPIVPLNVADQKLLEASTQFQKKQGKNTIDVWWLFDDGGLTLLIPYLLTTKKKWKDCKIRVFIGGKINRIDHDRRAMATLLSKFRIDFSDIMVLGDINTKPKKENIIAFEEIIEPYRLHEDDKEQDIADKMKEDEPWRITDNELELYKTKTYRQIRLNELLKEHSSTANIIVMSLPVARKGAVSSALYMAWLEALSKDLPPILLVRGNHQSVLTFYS
Procedure: FLIPR TI Flux assay. HEK-293 cells were washed with HBSS, and then incubated with loading buffer containing TI sensitive fluorescent dye (https://www.moleculardevices.com), 20 μM bumetanide 20 μM ouabain and 2.5 mM probenecid for 1 h at room temperature (RT) under control conditions or with drugs in the dark using a FlexStation 3 microplate reader (Molecular Devices) and imaged […] for 30 min. Stimulus buffer was added containing 5 mM K^+/0.5 mM Tl^+ and cells were imaged every 1.5 over a 190 second time course The initial rate Tl^+ uptake (Relative Fluorescence Units (RFU) per second) was determined following addition of the stimulus buffer as outlined previously (Conway et al., 2017, supra) (Lee et al., 2022, supra).
Several studies have shown that the activity and plasma membrane accumulation of KCC2 is potentiated via phosphorylation of S940, a process mediated by the activity of protein kinase C and protein phosphatase 1 (Lee et al, 2011, supra; Lee et al., J Biol Chem 282, 29777-29784 (2007); Moore et al., Proc. Natl. Acad. Sci. U.S.A 115, 10166-10171 (2018); Moore et al., Trends Neurosci. 40, 555-571 (2017); Silayeva et al., Proc. Natl. Acad. Sci. U.S.A. 112, 3523-3528 (2015)). […] Compared to KCC2, effects on KCC3, KCC4, and NKCC1 were only seen at concentrations more than 35-fold that of KCC2 (>100 μM) (FIG. 1G).

[3] = tested on: 18-20 Div hippocampal neurons; test: Gramicidin perforated patch-clamp, EGABA in hippocampal neurons; type: cell-based, Sprague Dawley; settings: 300 nM
Procedure: Neuronal Cultures. Hippocampal neurons were prepared from Sprague Dawley E18 embryos and plated at 450,000 per dish and maintained at 37° C. in a humidified 5% CO2 incubator for 10-25 days before experimentation (Lee et al., Nat. Neurosci. 14, 736-743 (2011)).
At this developmental stage, GABAAR receptor activation leads to hyperpolarization, a phenomenon critically dependent upon KCC2 (Kontou et al., J Biol Chem, 100364 (2021)).
Neuronal Patch clamp assays. Neuronal cell culture recordings were performed in bath saline at 34° C. For gramicidin perforated-patch experiments, pipettes contained (in mM): 140 KCl and 10 HEPES, pH 7.4 KOH. For whole-cell experiments, pipettes contained (in mM): 115 K-meth-SO4, 30 KCl, 2 Mg-ATP, 4 Na-ATP, 0.4 Na-GTP, and 10 HEPES, pH 7.4 KOH. Bath saline contained the following (in mM): 140 NaCl, 2.5 KCl, 2.5 CaCl2, 2.5 MgCl2, 10 HEPES, and 11 glucose, pH 7.4 NaOH (Kontou et al., 2021, supra). All compound solutions were applied to cells using a three-barreled 700 μm pipe positioned just above the cell (Warner Instruments). […] All voltages from whole-cell experiments were corrected offline using a calculated liquid junction potential value (13.6 mV) in Clampex (Molecular Devices). For gramicidin perforated-patch experiments, intracellular Cl^− values were back-calculated using measured EGABA values and the Nernst equation: […]

SMILES: C[C@@H]1CN(c2nc3c(c(Nc4ccc(C5CCCCC5)cc4)n2)COC3)CCO1 [Compound A, (R)—N-(4-cyclohexylphenyl)-2-(2-methylmorpholino)-5,7-dihydrofuro[3,4-d]pyrimidin-4-amine]
- development of late recurrent discharges (LRDs) [1]: reduced
- EC50 [2]: > 100 µM
- reduction in Cl− ([3]; 15 min, calculated from EGABA): 2.2 ± 0.6 mM
- EGABA at 15 min ([3]; from −75±3.1 at 0 min, bumetanide and TTX present): −85.1±4.2 mV
